Measurements as given in US10173991B2, “Sulfone amide linked benzothiazole inhibitors of endothelial lipase” (BRISTOL-MYERS SQUIBB COMPANY, priority 2014, dated 2019).
Like-named read-outs stand apart in the source and are kept apart here.

Biological target: Endothelial lipase (EL) (Homo sapiens (Human), UniProt Q9Y5X9)
Assay: Endothelial lipase (EL) enzymatic assay with fluorescent substrate A10070 in DMPG vesicles
Type: biochemical
Outline: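 Substrate A10070 sits in sonicated DMPG vesicles at 0.11 mole fraction. Lipase and compound preincubated 30 min, 37° C, in HEPES pH 8.0 buffer with CaCl2.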

Chain of Endothelial lipase (EL) (Q9Y5X9 21-500): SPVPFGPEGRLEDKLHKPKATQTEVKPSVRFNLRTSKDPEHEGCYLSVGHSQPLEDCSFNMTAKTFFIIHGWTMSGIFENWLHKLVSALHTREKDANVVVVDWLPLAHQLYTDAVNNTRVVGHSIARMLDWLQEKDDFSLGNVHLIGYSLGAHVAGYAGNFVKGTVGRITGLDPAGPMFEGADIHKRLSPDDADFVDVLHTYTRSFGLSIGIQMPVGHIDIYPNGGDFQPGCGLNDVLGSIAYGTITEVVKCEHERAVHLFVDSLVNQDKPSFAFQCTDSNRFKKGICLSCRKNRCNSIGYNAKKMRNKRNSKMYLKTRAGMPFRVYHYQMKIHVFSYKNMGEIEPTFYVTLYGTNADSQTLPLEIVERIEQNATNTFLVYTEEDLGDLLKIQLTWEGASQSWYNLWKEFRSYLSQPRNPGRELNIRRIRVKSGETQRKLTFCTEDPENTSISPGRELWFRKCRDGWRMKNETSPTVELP

## CC(C)S(=O)(=O)C(C(=O)NCC(=O)NC1CC1)c1nc2c(F)cc(-c3ccc(C(=O)N4CCC4)cc3)cc2s1 (stereo not drawn) [Example 284, 2-{6-[4-(azetidine-1-carbonyl)phenyl]-4-fluoro-1,3-benzothiazol-2-yl}-N-[(cyclopropyl-carbamoyl)methyl]-2-(propane-2-sulfonyl)acetamide]
  IC50: 12 nM

## Cc1cc2nc(C(C(=O)NCC(=O)NC3CC3)S(=O)(=O)C(C)C)sc2cc1-c1ccc(NC(=O)OCc2ccccc2)cc1 (stereo not drawn) [Example 285, benzyl N-{4-[2-({[(cyclopropyl-carbamoyl)methyl]carbamoyl} (propane-2-sulfonyl)methyl)-5-methyl-1,3-benzothiazol-6-yl]phenyl}carbamate]
  IC50: 12 nM

## COCCS(=O)(=O)C(C(=O)NCC(=O)NC1CC1)c1nc2cc(F)c(-c3ccc(-c4noc(=O)[nH]4)cc3)cc2s1 (stereo not drawn) [Example 286, N-[(cyclopropyl-carbamoyl)methyl]-2-{5-fluoro-6-[4-(5-oxo-4,5-dihydro-1,2,4-oxadiazol-3-yl)phenyl]-1,3-benzothiazol-2-yl}-2-(2-methoxyethane-sulfonyl)acetamide]
  IC50: 8 nM

## CC(C)OCCNC(=O)CNC(=O)C(c1nc2ccc(-c3ccc4c(c3)CNC4=O)cc2s1)S(C)(=O)=O (stereo not drawn) [Example 287, N-(2-((2-Isopropoxyethyl)amino)-2-oxoethyl)-2-(methylsulfonyl)-2-(6-(1-oxoisoindolin-5-yl)benzo[d]thiazol-2-yl)acetamide]
EL from conditioned media of HT-1080 cells, 30 min preincubation at 37° C.
  IC50: 2.9 nM

## COCCS(=O)(=O)C(C(=O)NCC(=O)NC1CC1)c1nc2ccc(-c3ccncc3Cl)cc2s1 (stereo not drawn) [Example 288, 2-[6-(3-chloropyridin-4-yl)-1,3-benzothiazol-2-yl]-N-[(cyclopropyl-carbamoyl)methyl]-2-(2-methoxyethane-sulfonyl)acetamide]
  IC50: 15 nM

## COCCS(=O)(=O)C(C(=O)NCC(=O)NC1CC1)c1nc2ccc(-c3ccncc3)cc2s1 (stereo not drawn) [Example 289, N-[(cyclopropyl-carbamoyl)methyl]-2-(2-methoxyethane-sulfonyl)-2-[6-(pyridin-4-yl)-1,3-benzothiazol-2-yl] acetamide]
  IC50: 23 nM

## COCCS(=O)(=O)C(C(=O)NCC(=O)NC1CC1)c1nc2ccc(-c3ccnc(C(F)(F)F)c3)cc2s1 (stereo not drawn) [Example 290, N-[(cyclopropyl-carbamoyl)methyl]-2-(2-methoxyethane-sulfonyl)-2-{6-[2-(trifluoromethyl)pyridin-4-yl]-1,3-benzothiazol-2-yl} acetamide]
  IC50: 23 nM

## COCCS(=O)(=O)C(C(=O)NCC(=O)NC1CC1)c1nc2ccc(-c3ccc(OC(C)C)nc3)cc2s1 (stereo not drawn) [Example 291, N-[(cyclopropyl-carbamoyl)methyl]-2-(2-methoxyethane-sulfonyl)-2-{6-[6-(propan-2-yloxy)pyridin-3-yl]-1,3-benzothiazol-2-yl} acetamide]
  IC50: 29 nM

## COCCS(=O)(=O)C(C(=O)NCC(=O)NC1CC1)c1nc2ccc(-c3cnnc(C)c3)cc2s1 (stereo not drawn) [Example 292, N-[(cyclopropyl-carbamoyl)methyl]-2-(2-methoxyethane-sulfonyl)-2-[6-(6-methylpyridazin-4-yl)-1,3-benzothiazol-2-yl]acetamide]
  IC50: 31 nM

## CCOc1ncccc1-c1ccc2nc(C(C(=O)NCC(=O)NC3CC3)S(=O)(=O)CCOC)sc2c1 (stereo not drawn) [Example 293, N-[(cyclopropyl-carbamoyl)methyl]-2-[6-(2-ethoxypyridin-3-yl)-1,3-benzothiazol-2-yl]-2-(2-methoxyethane-sulfonyl)acetamide]
  IC50: 33 nM

## COCCS(=O)(=O)C(C(=O)NCC(=O)NC1CC1)c1nc2ccc(-c3cnc(F)c(C)c3)cc2s1 (stereo not drawn) [Example 294, N-[(cyclopropyl-carbamoyl)methyl]-2-[6-(6-fluoro-5-methylpyridin-3-yl)-1,3-benzothiazol-2-yl]-2-(2-methoxyethane-sulfonyl)acetamide]
  IC50: 36 nM

## COCCS(=O)(=O)C(C(=O)NCC(=O)NC1CC1)c1nc2ccc(-c3ccc(C(F)(F)F)nc3)cc2s1 (stereo not drawn) [Example 296, N-[(cyclopropyl-carbamoyl)methyl]-2-(2-methoxyethane-sulfonyl)-2-{6-[6-(trifluoromethyl)pyridin-3-yl]-1,3-benzothiazol-2-yl}acetamide]
  IC50: 69 nM

## COCCS(=O)(=O)C(C(=O)NCC(=O)NC1CC1)c1nc2ccc(-c3cccnc3Cl)cc2s1 (stereo not drawn) [Example 297, 2-[6-(2-chloropyridin-3-yl)-1,3-benzothiazol-2-yl]-N-2-(2-methoxyethane-sulfonyl)acetamide]
  IC50: 85 nM

## CCOc1ccc(-c2ccc3nc(C(C(=O)NCC(=O)NC4CC4)S(=O)(=O)CCOC)sc3c2)cn1 (stereo not drawn) [Example 299, N-[(cyclopropyl-carbamoyl)methyl]-2-[6-(6-ethoxypyridin-3-yl)-1,3-benzothiazol-2-yl]-2-(2-methoxyethane-sulfonyl)acetamide]
  IC50: 118 nM

## COCCS(=O)(=O)C(C(=O)NCC(=O)NC1CC1)c1nc2ccc(-c3ccc(C4CC4)nc3)cc2s1 (stereo not drawn) [Example 300, N-[(cyclopropyl-carbamoyl)methyl]-2-[6-(6-cyclopropyl-pyridin-3-yl)-1,3-benzothiazol-2-yl]-2-(2-methoxyethane-sulfonyl)acetamide]
  IC50: 125 nM

## COCCS(=O)(=O)C(C(=O)NCC(=O)NC1CC1)c1nc2ccc(-c3cnc(C(F)(F)F)nc3)cc2s1 (stereo not drawn) [Example 301, N-[(cyclopropyl-carbamoyl)methyl]-2-(2-methoxyethane-sulfonyl)-2-{6-[2-(trifluoromethyl)pyrimidin-5-yl]-1,3-benzothiazol-2-yl}acetamide]
  IC50: 155 nM

## COCCS(=O)(=O)C(C(=O)NCC(=O)NC1CC1)c1nc2ccc(-c3ccc(F)nc3F)cc2s1 (stereo not drawn) [Example 302, N-[(cyclopropyl-carbamoyl)methyl]-2-[6-(2,6-difluoropyridin-3-yl)-1,3-benzothiazol-2-yl]-2-(2-methoxyethane-sulfonyl)acetamide]
  IC50: 160 nM

## COCCS(=O)(=O)C(C(=O)NCC(=O)NC1CC1)c1nc2ccc(-c3ccc(Cl)cn3)cc2s1 (stereo not drawn) [Example 303, 2-[6-(5-chloropyridin-2-yl)-1,3-benzothiazol-2-yl]-N-[(cyclopropyl-carbamoyl)methyl]-2-(2-methoxyethane-sulfonyl)acetamide]
  IC50: 247 nM

## COCCS(=O)(=O)C(C(=O)NCC(=O)NC1CC1)c1nc2ccc(-c3cncc(Cl)c3)cc2s1 (stereo not drawn) [Example 304]
  IC50: 52 nM

## COCCS(=O)(=O)C(C(=O)NCC(=O)NC1CC1)c1nc2ccc(-c3ccccc3)cc2s1 (stereo not drawn) [Example 305, N-[(cyclopropyl-carbamoyl)methyl]-2-(2-methoxyethane-sulfonyl)-2-(6-phenyl-1,3-benzothiazol-2-yl) acetamide]
  IC50: 7 nM

## COCCNC(=O)c1ccc(-c2ccc3nc(C(C(=O)NCC(=O)NC4CC4)S(=O)(=O)CCOC)sc3c2)cc1 (stereo not drawn) [Example 306, 4-[2-({[(cyclopropyl-carbamoyl)methyl]carbamoyl}(2-methoxyethane-sulfonyl)methyl)-1,3-benzothiazol-6-yl]-N-(2-methoxyethyl) benzamide]
  IC50: 13 nM

## COCCS(=O)(=O)C(C(=O)NCC(=O)NC1CC1)c1nc2ccc(-c3ccc(F)cc3)cc2s1 (stereo not drawn) [Example 307, N-[(cyclopropyl-carbamoyl)methyl]-2-[6-(4-fluorophenyl)-1,3-benzothiazol-2-yl]-2-(2-methoxyethane-sulfonyl)acetamide]
  IC50: 15 nM

## COCCS(=O)(=O)C(C(=O)NCC(=O)NC1CC1)c1nc2ccc(-c3ccc(COC)cc3)cc2s1 (stereo not drawn) [Example 308, N-[(cyclopropyl-carbamoyl)methyl]-2-(2-methoxyethane-sulfonyl)-2-{6-[4-(methoxymethyl)phenyl]-1,3-benzothiazol-2-yl}acetamide]
  IC50: 27 nM

## COCCS(=O)(=O)C(C(=O)NCC(=O)NC1CC1)c1nc2ccc(-c3ccc(C(=O)N4CCOCC4)cc3)cc2s1 (stereo not drawn) [Example 309, N-[(cyclopropyl-carbamoyl)methyl]-2-(2-methoxyethane-sulfonyl)-2-{6-[4-(morpholine-4-arbonyl)phenyl]-1,3-benzothiazol-2-yl}acetamide]
  IC50: 50 nM

## COCCS(=O)(=O)C(C(=O)NCC(=O)NC1CC1)c1nc2ccc(-c3cncnc3)cc2s1 (stereo not drawn) [Example 310, N-[(cyclopropyl-carbamoyl)methyl]-2-(2-methoxyethane-sulfonyl)-2-[6-(pyrimidin-5-yl)-1,3-benzothiazol-2-yl]acetamide]
  IC50: 93 nM

## COCCS(=O)(=O)C(C(=O)NCC(=O)NC1CC1)c1nc2ccc(-c3ccnc(F)c3)cc2s1 (stereo not drawn) [Example 311, N-[(cyclopropyl-carbamoyl)methyl]-2-[6-(2-fluoropyridin-4-yl)-1,3-benzothiazol-2-yl]-2-(2-methoxyethane-sulfonyl)acetamide]
  IC50: 94 nM

## COCCS(=O)(=O)C(C(=O)NCC(=O)NC1CC1)c1nc2ccc(-c3cccc(Cl)n3)cc2s1 (stereo not drawn) [Example 312, 2-[6-(6-chloropyridin-2-yl)-1,3-benzothiazol-2-yl]-N-[(cyclopropyl-carbamoyl)methyl]-2-(2-methoxyethane-sulfonyl)acetamide]
  IC50: 188 nM

## COCCS(=O)(=O)C(C(=O)NCC(=O)NC1CC1)c1nc2ccc(-c3ccnn3C)cc2s1 (stereo not drawn) [Example 313, N-[(cyclopropyl-carbamoyl)methyl]-2-(2-methoxyethane-sulfonyl)-2-[6-(1-methyl-1H-pyrazol-5-yl)-1,3-benzothiazol-2-yl]acetamide]
  IC50: 313 nM

## COCCS(=O)(=O)C(C(=O)NCC(=O)NC1CC1)c1nc2ccc(-c3cccc(F)n3)cc2s1 (stereo not drawn) [Example 314, N-[(cyclopropyl-carbamoyl)methyl]-2-[6-(6-fluoropyridin-2-yl)-1,3-benzothiazol-2-yl]-2-(2-methoxyethane-sulfonyl)acetamide]
  IC50: 150 nM

## COCCS(=O)(=O)C(C(=O)NCC(=O)NC1CC1)c1nc2ccc(-c3ccc(=O)n(C)c3)cc2s1 (stereo not drawn) [Example 315, N-[(cyclopropyl-carbamoyl)methyl]-2-(2-methoxyethane-sulfonyl)-2-[6-(1-methyl-6-oxo-1,6-dihydropyridin-3-yl)-1,3-benzothiazol-2-yl}acetamide]
  IC50: 12 nM
